# Data published in paper PMC9610298, “Synthesis, Biological Evaluation and Machine Learning Prediction Model for Fluorinated Cinchona Alkaloid-Based Derivatives as Cholinesterase Inhibitors” (Pharmaceuticals, 2022).
# Columns and labels:
# recombinant human AChE = recombinant human AChE (Homo sapiens, UniProt P22303); test: Reversible inhibition of AChE, Ellman method, enzyme-inhibitor dissociation constants; format: biochemical; conditions: ± standard error; ATCh substrate, 25 °C, pH 7.4
# Protocol: (§1) As a source of BChE, a purified human BChE, and as AChE, a recombinant human AChE was used, both enzymes kindly provided by Dr. F. Nachon (Département de Toxicologie, Armed Forces Biomedical Research Institute, France). The concentrated stocks of enzymes (BChE: 5.6 µM; AChE: 0.20 µM) were diluted in a phosphate sodium buffer 0.1 M (pH 7.4) containing 0.1% BSA before starting the experiments.
# (§2) Enzyme activities were measured spectrophotometrically by the Ellman method at […] using 0.30 mM DTNB as thiol reagent, ATCh as substrate and water in 0.1 M phosphate buffer, pH 7.4. For the inhibition measurements, the reaction mixture contained tested compounds instead of water. […] Measurements were done at 25 °C on a Tecan Infinite M200Pro plate reader (Austria). A detailed description of measurement protocol was described previously.
# (§3) The reversible inhibition of BChE and AChE by tested compounds was measured by determining the decrease of enzyme activity towards ATCh in their presence. The activities of the enzymes were measured at different substrate concentrations ([S]; 0.050–0.50 mM) in the absence (v0) and presence (vi) of the given tested compounds concentration ([I]; 0.050–200 µM, depending on the compound) selected to inhibit the enzymes for 20–80%. At least three concentrations of inhibitors for each substrate concentration were used in at least three experiments. The apparent dissociation inhibition constant (Ki,app) was calculated applying the Hunter-Downs equation and linear regression analysis (1):(1) Ki,app=vi/v0−vi⋅I=KI+KI/KS⋅S where y-intercept determines the enzyme-inhibitor dissociation constants (K(I)), while x-intercept determines the enzyme-substrate dissociation constant, K(S). The determination of kinetic constants was carried out using the GraphPadPrism 6.0 program (GraphPad Software, San Diego, CA, USA).
# purified human BChE = purified human BChE (Homo sapiens, UniProt P06276); test: Reversible inhibition of BChE, Ellman method, enzyme-inhibitor dissociation constants; format: biochemical; conditions: for SI, selective index Ki(AChE)/Ki(BChE): times higher preference for BChE over AChE
# Protocol: as §1, §2, §3
# [1] = ± standard error, ATCh substrate, 25 °C, pH 7.4
# purified human BChE, sequence (P06276 29-602): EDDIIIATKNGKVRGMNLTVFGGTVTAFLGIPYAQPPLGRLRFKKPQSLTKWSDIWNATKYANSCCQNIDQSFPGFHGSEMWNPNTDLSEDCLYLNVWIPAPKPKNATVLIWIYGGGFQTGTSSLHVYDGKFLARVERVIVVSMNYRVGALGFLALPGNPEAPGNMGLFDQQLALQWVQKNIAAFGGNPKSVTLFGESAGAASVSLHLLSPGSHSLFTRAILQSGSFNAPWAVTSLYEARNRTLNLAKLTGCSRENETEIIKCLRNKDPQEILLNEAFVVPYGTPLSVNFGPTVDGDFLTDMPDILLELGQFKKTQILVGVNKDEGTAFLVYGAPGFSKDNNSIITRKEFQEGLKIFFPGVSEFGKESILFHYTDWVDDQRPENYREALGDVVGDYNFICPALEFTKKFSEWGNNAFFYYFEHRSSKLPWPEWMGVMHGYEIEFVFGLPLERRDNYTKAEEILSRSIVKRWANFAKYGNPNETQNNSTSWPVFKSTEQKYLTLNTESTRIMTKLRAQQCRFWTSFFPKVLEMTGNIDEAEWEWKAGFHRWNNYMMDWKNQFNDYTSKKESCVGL
# recombinant human AChE, sequence (P22303 32-614): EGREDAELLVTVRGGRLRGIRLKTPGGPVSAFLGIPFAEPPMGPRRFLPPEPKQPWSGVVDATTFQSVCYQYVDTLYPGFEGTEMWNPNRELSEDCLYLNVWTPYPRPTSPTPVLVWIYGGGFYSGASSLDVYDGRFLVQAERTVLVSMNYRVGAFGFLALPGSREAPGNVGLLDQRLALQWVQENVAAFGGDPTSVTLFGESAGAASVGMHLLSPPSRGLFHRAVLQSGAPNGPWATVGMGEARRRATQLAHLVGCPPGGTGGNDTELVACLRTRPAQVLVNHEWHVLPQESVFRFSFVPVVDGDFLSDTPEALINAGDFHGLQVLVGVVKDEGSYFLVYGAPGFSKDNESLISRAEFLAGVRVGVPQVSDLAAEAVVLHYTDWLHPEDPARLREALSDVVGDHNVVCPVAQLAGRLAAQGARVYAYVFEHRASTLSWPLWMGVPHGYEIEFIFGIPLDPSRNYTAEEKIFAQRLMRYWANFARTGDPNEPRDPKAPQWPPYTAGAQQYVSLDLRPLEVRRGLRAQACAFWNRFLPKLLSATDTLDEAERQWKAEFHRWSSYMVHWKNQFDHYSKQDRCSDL
SMILES,Ki (recombinant human AChE) [µM],"SI, selective index Ki(AChE)/Ki(BChE) (purified human BChE)",Ki (purified human BChE; [1]) [µM],"times higher affinity of BChE for DHCN over DHCD (purified human BChE; unsubstituted 10,11-dihydro compounds)",Stereoselectivity Ki(CN/CD) BChE (purified human BChE; ratio > 1: higher affinity toward CD over CN pseudo-enantiomer),Ki (purified human BChE; stated in text as around) [µM]
"C=CC1C[N+]2(Cc3c(F)cccc3C(F)(F)F)CCC1C[C@@H]2[C@@H](O)c1ccnc2ccccc12 (stereo partly shown) [CN 2F-6CF3, N-(2-fluoro-6-trifluoromethylbenzyl)cinchoninium bromide]",61 ± 2,7.9,7.7 ± 0.4,,,
"C=CC1C[N+]2(Cc3ccc(F)cc3F)CCC1C[C@H]2[C@H](O)c1ccnc2ccccc12 (stereo partly shown) [CD 2,4F]",6.4 ± 0.3,1.1,6.1 ± 0.5,,,
"C=CC1C[N+]2(Cc3c(F)cccc3C(F)(F)F)CCC1C[C@H]2[C@H](O)c1ccnc2ccccc12 (stereo partly shown) [CD 2F-6CF3, N-(2-fluoro-6-trifluoromethylbenzyl)cinchonidinium bromide]",35 ± 4,6.1,5.7 ± 0.6,,,
"C=CC1C[N+]2(Cc3ccc(F)cc3)CCC1C[C@@H]2[C@@H](O)c1ccnc2ccccc12 (stereo partly shown) [CN 4F, N-(para-fluorobenzyl)cinchoninium bromide]",3.9 ± 0.2,1.5,2.6 ± 0.1,,,
"CC[C@H]1CN2CC[C@H]1C[C@@H]2[C@@H](O)c1ccnc2ccccc12 [DHCN, 10,11-dihydrocinchonine]",,,1.2 ± 0.1,16,,
"C=CC1C[N+]2(Cc3c(F)cccc3Cl)CCC1C[C@@H]2[C@@H](O)c1ccnc2ccccc12 (stereo partly shown) [CN 2Cl-6F, N-(2-chloro-6-fluorobenzyl)cinchoninium bromide]",17 ± 1,14,1.2,,,
"C=CC1C[N+]2(Cc3ccc(F)c(F)c3)CCC1C[C@@H]2[C@@H](O)c1ccnc2ccccc12 (stereo partly shown) [CN 3,4F]",14 ± 0.2,2.3,6.1 ± 0.2,,,
"CCC1C[N+]2(Cc3ccc(F)cc3)CCC1C[C@H]2[C@H](O)c1ccnc2ccccc12 (stereo partly shown) [DHCD 4F, N-(4-fluorobenzyl)-10,11-dihydrocinchonidinium bromide]",31 ± 1,8,4.3 ± 0.2,,,
C=CC1C[N+]2(Cc3cccc(F)c3)CCC1C[C@@H]2[C@@H](O)c1ccnc2ccccc12 (stereo partly shown) [CN 3F],13 ± 0.4,2.1,6.1 ± 0.3,,,
"CCC1C[N+]2(Cc3cccc(OC(F)(F)F)c3)CCC1C[C@@H]2[C@@H](O)c1ccnc2ccccc12 (stereo partly shown) [DHCN 3OCF3, N-(3-trifluoromethoxybenzyl)-10,11-dihydrocinchoninium bromide]",68 ± 1,52,1.3 ± 0.5,,,
"C=CC1C[N+]2(Cc3c(F)cccc3Cl)CCC1C[C@H]2[C@H](O)c1ccnc2ccccc12 (stereo partly shown) [CD 2Cl-6F, N-(2-chloro-6-fluorobenzyl)cinchonidinium bromide]",9.9 ± 0.8,1.9,5 ± 0.3,,,
C=CC1C[N+]2(Cc3ccc(F)cc3)CCC1C[C@H]2[C@H](O)c1ccnc2ccccc12 (stereo partly shown) [CD 4F],69 ± 3,46,1.5 ± 0.1,,,
"C=CC1C[N+]2(Cc3cc(F)cc(F)c3)CCC1C[C@H]2[C@H](O)c1ccnc2ccccc12 (stereo partly shown) [CD 3,5F]",10 ± 1,123,0.081 ± 0.01,,78,~0.076
CCC1C[N+]2(Cc3ccccc3)CCC1C[C@H]2[C@H](O)c1ccnc2ccccc12 (stereo partly shown) [DHCD Bzl],4.8 ± 0.4,12,0.4 ± 0.02,,,
"CCC1C[N+]2(Cc3cccc(C(F)(F)F)c3)CCC1C[C@H]2[C@H](O)c1ccnc2ccccc12 (stereo partly shown) [DHCD 3CF3, N-(3-trifluoromethylbenzyl)-10,11-dihydrocinchonidinium bromide]",25 ± 1,18,1.4 ± 0.1,,,
"C=CC1C[N+]2(Cc3c(F)cccc3F)CCC1C[C@@H]2[C@@H](O)c1ccnc2ccccc12 (stereo partly shown) [CN 2,6F, N-(2,6-difluorobenzyl)cinchoninium bromide]",30 ± 2,5.8,5.2 ± 0.2,,,
"CCC1CN2CCC1CC2C(O)c1ccnc2ccccc12 (stereo not shown) [DHCD, 10,11-dihydrocinchonidine]",206 ± 6,11,19 ± 2,,,
"C=CC1C[N+]2(Cc3cccc(F)c3F)CCC1C[C@@H]2[C@@H](O)c1ccnc2ccccc12 (stereo partly shown) [CN 2,3F, N-(2,3-difluorobenzyl)cinchoninium bromide]",46 ± 3,4.8,9.6 ± 0.4,,,
"C=CC1C[N+]2(Cc3ccc(F)c(F)c3)CCC1C[C@H]2[C@H](O)c1ccnc2ccccc12 (stereo partly shown) [CD 3,4F]",13 ± 1,10,1.3 ± 0.1,,,

SMILES,Ki (recombinant human AChE) [µM],"SI, selective index Ki(AChE)/Ki(BChE) (purified human BChE)",Ki (purified human BChE; [1]) [µM],"times higher affinity of BChE for DHCN over DHCD (purified human BChE; unsubstituted 10,11-dihydro compounds)",Stereoselectivity Ki(CN/CD) BChE (purified human BChE; ratio > 1: higher affinity toward CD over CN pseudo-enantiomer),Ki (purified human BChE; stated in text as around) [µM]
C=CC1C[N+]2(Cc3ccccc3F)CCC1C[C@H]2[C@H](O)c1ccnc2ccccc12 (stereo partly shown) [CD 2F],33 ± 1,40,0.82 ± 0.03,,,
C=CC1C[N+]2(Cc3ccccc3)CCC1C[C@H]2[C@H](O)c1ccnc2ccccc12 (stereo partly shown) [CD Bzl],15 ± 2,200,0.075 ± 0.007,,,
"CCC1C[N+]2(Cc3ccc(F)cc3)CCC1C[C@@H]2[C@@H](O)c1ccnc2ccccc12 (stereo partly shown) [DHCN 4F, N-(4-fluorobenzyl)-10,11-dihydrocinchoninium bromide]",64 ± 2,40,1.6 ± 0.1,,,
C=CC1C[N+]2(Cc3ccc(OC(F)(F)F)cc3)CCC1C[C@H]2[C@H](O)c1ccnc2ccccc12 (stereo partly shown) [CD 4OCF3],7.3 ± 0.5,0.96,7.6 ± 0.5,,,
CCC1C[N+]2(Cc3cccc(F)c3)CCC1C[C@H]2[C@H](O)c1ccnc2ccccc12 (stereo partly shown) [DHCD 3F],27 ± 2,84,0.3 ± 0.02,,,
"C=CC1C[N+]2(Cc3c(F)cccc3F)CCC1C[C@H]2[C@H](O)c1ccnc2ccccc12 (stereo partly shown) [CD 2,6F]",7.7 ± 0.5,0.77,9.9 ± 0.4,,,
C=CC1C[N+]2(Cc3ccccc3F)CCC1C[C@@H]2[C@@H](O)c1ccnc2ccccc12 (stereo partly shown) [CN 2F],80 ± 2,33,2.4 ± 0.1,,,
"CCC1C[N+]2(Cc3ccc(OC(F)(F)F)cc3)CCC1C[C@H]2[C@H](O)c1ccnc2ccccc12 (stereo partly shown) [DHCD 4OCF3, N-(4-trifluoromethoxybenzyl)-10,11-dihydrocinchonidinium bromide]",17 ± 1,3,5.9 ± 0.2,,,
"C=CC1C[N+]2(Cc3ccc(F)cc3F)CCC1C[C@@H]2[C@@H](O)c1ccnc2ccccc12 (stereo partly shown) [CN 2,4F, N-(2,4-difluorobenzyl)cinchoninium bromide]",27 ± 1,4.5,6 ± 0.2,,,
C=CC1C[N+]2(Cc3ccc(C(F)(F)F)cc3)CCC1C[C@@H]2[C@@H](O)c1ccnc2ccccc12 (stereo partly shown) [CN 4CF3],31 ± 1,5.2,6 ± 0.3,,,
"C=CC1C[N+]2(Cc3cccc(F)c3F)CCC1C[C@H]2[C@H](O)c1ccnc2ccccc12 (stereo partly shown) [CD 2,3F]",19 ± 1,25,0.75 ± 0.03,,,
C=CC1C[N+]2(Cc3cccc(C(F)(F)F)c3)CCC1C[C@@H]2[C@@H](O)c1ccnc2ccccc12 (stereo partly shown) [CN 3CF3],59 ± 2,13,4.4 ± 0.2,,,
C=CC1C[N+]2(Cc3ccccc3)CCC1C[C@@H]2[C@@H](O)c1ccnc2ccccc12 (stereo partly shown) [CN Bzl],121 ± 12,42,2.9 ± 0.3,,,
"CCC1C[N+]2(Cc3cccc(F)c3)CCC1C[C@@H]2[C@@H](O)c1ccnc2ccccc12 (stereo partly shown) [DHCN 3F, N-(3-fluorobenzyl)-10,11-dihydrocinchoninium bromide]",20 ± 1,20,1.2 ± 0.1,,,
C=CC1C[N+]2(Cc3ccc(C(F)(F)F)cc3)CCC1C[C@H]2[C@H](O)c1ccnc2ccccc12 (stereo partly shown) [CD 4CF3],21 ± 1,11,2 ± 0.1,,,
C=CC1C[N+]2(Cc3ccc(OC(F)(F)F)cc3)CCC1C[C@@H]2[C@@H](O)c1ccnc2ccccc12 (stereo partly shown) [CN 4OCF3],19 ± 2,2.4,7.8 ± 0.3,,,
"C=CC1C[N+]2(Cc3cccc(OC(F)(F)F)c3)CCC1C[C@@H]2[C@@H](O)c1ccnc2ccccc12 (stereo partly shown) [CN 3OCF3, N-(3-trifluoromethoxybenzyl)cinchoninium bromide]",41 ± 2,8.7,4.7 ± 0.2,,,
C=CC1C[N+]2(Cc3cccc(OC(F)(F)F)c3)CCC1C[C@H]2[C@H](O)c1ccnc2ccccc12 (stereo partly shown) [CD 3OCF3],8.2 ± 1.1,1.1,7.4 ± 0.4,,,
"C=CC1C[N+]2(Cc3ccc(Br)cc3F)CCC1C[C@H]2[C@H](O)c1ccnc2ccccc12 (stereo partly shown) [CD 2F-4Br, N-(2-fluoro-4-bromobenzyl)cinchonidinium bromide]",7.2 ± 0.4,10,0.68 ± 0.05,,,
